These results are taken from ChEMBL document CHEMBL3351921, “Structure-activity relationships (SAR) and structure-kinetic relationships (SKR) of pyrrolopiperidinone acetic acids as CRTh2 antagonists” (Bioorg Med Chem Lett, 2014).

Data set [1] concerns the target T1, Prostaglandin D2 receptor 2 (Homo sapiens) (UniProt Q9Y5Y4).
T1 sequence (whole entry): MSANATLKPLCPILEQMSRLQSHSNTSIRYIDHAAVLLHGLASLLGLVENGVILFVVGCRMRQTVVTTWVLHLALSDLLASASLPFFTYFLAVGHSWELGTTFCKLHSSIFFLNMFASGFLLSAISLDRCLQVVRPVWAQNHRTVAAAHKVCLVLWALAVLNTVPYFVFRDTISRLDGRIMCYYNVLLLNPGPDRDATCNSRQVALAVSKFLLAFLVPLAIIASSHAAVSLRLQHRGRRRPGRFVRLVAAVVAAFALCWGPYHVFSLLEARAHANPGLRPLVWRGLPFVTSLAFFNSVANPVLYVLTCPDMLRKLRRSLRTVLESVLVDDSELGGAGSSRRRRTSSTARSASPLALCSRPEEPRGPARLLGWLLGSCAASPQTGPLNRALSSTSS
Conditions: CHO.K1.
Description: Antagonist activity at CRTh2 (unknown origin) stably expressed in PGD2-stimulated CHO.K1 cells assessed as dissociation half-life at 5 to 10 times IC50 after 2 hrs by radio-labelled [35S]-GTPgammaS binding assay

Data set [2] addresses T2, Prostaglandin D2 receptor 2 (Homo sapiens, UniProt Q9Y5Y4).
T2 sequence (Q9Y5Y4 whole entry): T1 sequence (whole entry)
The experiment in a line: Antagonist activity at CRTh2 (unknown origin) stably expressed in PGD2-stimulated CHO.K1 cells preincubated for 1 hr by radio-labelled [35S]-GTPgammaS binding assay. It is filed as functional, cell-based.

A short description of data set [3]: Dissociation constant, pKa of the compound by potentiometric method. The data set is classed as physicochemical.
Data set [4] is described as follows: Apparent permeability across apical to basolateral side of human Caco2 cells at pH 7.4. It is filed as ADME, cell-based. As to conditions: Caco-2, pH 7.4. On the technique in general: Caco-2 cells form a polarised layer with tight junctions and transporters.
The target of data set [5] is T3, Prostaglandin D2 receptor (Homo sapiens) (UniProt Q13258).
T3 sequence (whole entry): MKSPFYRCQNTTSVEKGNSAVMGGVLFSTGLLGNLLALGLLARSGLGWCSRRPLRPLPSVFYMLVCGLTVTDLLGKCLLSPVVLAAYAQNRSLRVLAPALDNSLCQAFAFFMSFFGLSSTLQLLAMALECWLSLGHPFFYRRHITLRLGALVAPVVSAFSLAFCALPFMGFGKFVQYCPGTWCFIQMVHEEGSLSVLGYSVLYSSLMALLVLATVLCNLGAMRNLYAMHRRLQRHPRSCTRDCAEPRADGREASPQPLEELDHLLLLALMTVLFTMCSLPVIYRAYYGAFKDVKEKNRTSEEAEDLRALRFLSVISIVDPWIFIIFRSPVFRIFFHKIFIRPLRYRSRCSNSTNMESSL
The experiment in a line: Inhibition of at prostanoid DP1 receptor (unknown origin) at 10 uM.

Data set [6] addresses T4, Thromboxane A2 receptor (Homo sapiens) (UniProt P21731).
T4 sequence (whole entry): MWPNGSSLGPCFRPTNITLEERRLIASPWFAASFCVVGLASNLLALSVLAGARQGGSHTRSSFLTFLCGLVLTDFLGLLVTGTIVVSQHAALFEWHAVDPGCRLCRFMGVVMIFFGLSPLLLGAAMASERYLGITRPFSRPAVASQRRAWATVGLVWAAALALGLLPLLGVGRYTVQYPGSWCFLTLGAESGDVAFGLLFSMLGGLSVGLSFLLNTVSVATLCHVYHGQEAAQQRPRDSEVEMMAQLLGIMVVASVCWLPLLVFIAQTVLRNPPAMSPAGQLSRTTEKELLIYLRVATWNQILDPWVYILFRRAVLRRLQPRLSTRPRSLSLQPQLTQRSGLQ
The experiment in a line: Inhibition of at prostanoid TP receptor (unknown origin) at 10 uM.

Compound `COC(=O)c1ccc(Cc2c3c(n(CC(=O)O)c2C)CCNC3=O)c(S(=O)(=O)c2ccccc2)c1` came in with a T1/2 in data set [1] of 1.8 h.

As for `Cc1c(Cc2ccccc2C(O)c2ccccc2)c2c(n1CC(=O)O)CCNC2=O` (stereo unspecified), the 50% inhibitory concentration (IC50) in data set [2] is 32 nM. Also, the pKa in data set [3] came out at 3.1. Besides, the T1/2 in data set [1] was found to be 0.4 h.

Turning to `Cc1c(Cc2ccccc2S(=O)(=O)N2CCOCC2)c2c(n1CC(=O)O)CCNC2=O`, in data set [2], the IC50 came to 22 nM. In addition, the T1/2 in data set [1] amounted to 0.6 h.

Compound `Cc1c(Cc2ccc(C(=O)O)cc2S(=O)(=O)c2ccccc2)c2c(n1CC(=O)O)CCNC2=O` came in with an IC50 in data set [2] of 19 nM. That is a double-digit nanomolar value.

Compound `Cc1c(Cc2cc(F)ccc2S(=O)(=O)c2ccccc2)c2c(n1CC(=O)O)CCNC2=O` showed a T1/2 in data set [1] of 1.7 h.

For the compound `Cc1c(Cc2ccccc2S(=O)(=O)c2ccccc2)c2c(=O)[nH]ccc2n1CC(=O)O`, the apparent permeability from apical to basolateral (Papp A→B) in data set [4] was found to be 0.1 ×10⁻⁶ cm/s. Further, in data set [1], the T1/2 came out at 1.3 h.

Take `Cc1c(Cc2ccc(S(=O)(=O)Cc3ccccc3)cc2)c2c(n1CC(=O)O)CCNC2=O`: the IC50 in data set [2] amounted to 3 nM. In data set [1], this compound showed a T1/2 of 0.9 h.

In data set [2], `Cc1c(Cc2ccccc2S(=O)(=O)c2ccccc2)c2c(n1CC(=O)O)CCN(C)C2=O` came in with an IC50 of 7 nM. This compound showed a pKa in data set [3] of 2.9. This compound also came in with a T1/2 in data set [1] of 5.3 h.

`Cc1c(Cc2ccccc2S(=O)(=O)c2ccccc2F)c2c(n1CC(=O)O)CCNC2=O` had a T1/2 in data set [1] of 1.1 h.

For `Cc1c(Cc2ccccc2S(=O)(=O)c2ccccc2)c2c(n1CC(=O)O)CCN(Cc1ccccc1)C2=O`, the inhibition in data set [5] and in data set [6] was less than 30% throughout. Further, the pKa in data set [3] was 3.3. Besides, the T1/2 in data set [1] worked out at 6.7 h.

With `Cc1c(Cc2ccc(S(C)(=O)=O)cc2)c2c(n1CC(=O)O)CCNC2=O`, the IC50 in data set [2] worked out at 900 nM.

Take `Cc1c(Cc2ccccc2S(=O)(=O)c2ccccc2)c2c(n1[C@@H](C)C(=O)O)CCNC2=O`: the IC50 in data set [2] is 91 nM.

As for `Cc1c(Cc2ccc(C(F)(F)F)cc2S(=O)(=O)c2ccccc2)c2c(n1CC(=O)O)CCNC2=O`, the inhibition in data set [5] and in data set [6] was less than 30% throughout. The T1/2 in data set [1] is 0.9 h.

As for `CCS(=O)(=O)c1ccccc1Cc1c2c(n(CC(=O)O)c1C)CCNC2=O`, the half-maximal inhibitory concentration (IC50) in data set [2] was 550 nM. This lies in the sub-micromolar range.

With `Cc1c(Cc2ccccc2C(=O)c2ccccc2)c2c(n1CC(=O)O)CCNC2=O`, the half-inhibitory concentration (IC50) in data set [2] came to 810 nM.

For `Cc1c(Cc2ccccc2S(=O)(=O)N(C)Cc2ccccc2)c2c(n1CC(=O)O)CCNC2=O`, the IC50 in data set [2] stood at 26 nM. In data set [1], this compound gave a T1/2 of 0.6 h.

Consider `CNC(=O)c1ccc(Cc2c3c(n(CC(=O)O)c2C)CCNC3=O)c(S(=O)(=O)c2ccccc2)c1`, for which the half-maximal inhibitory concentration (IC50) in data set [2] is 10 nM. For the same compound, the T1/2 in data set [1] is 4.6 h.

In turn, `Cc1c(Cc2cc(C#N)ccc2S(=O)(=O)c2ccccc2)c2c(n1CC(=O)O)CCNC2=O` returned an IC50 in data set [2] of 28 nM. The compound also showed a T1/2 in data set [1] of 0.6 h.

As to `Cc1c(Cc2ccccc2Oc2ccccc2)c2c(n1CC(=O)O)CCNC2=O`, the half-inhibitory concentration (IC50) in data set [2] is 530 nM.

Take `Cc1c(Cc2ccccc2S(=O)(=O)c2ccc(OC(F)(F)F)cc2)c2c(n1CC(=O)O)CCNC2=O`: the IC50 in data set [2] was determined as 6.6 nM. This compound had a T1/2 in data set [1] of 1.3 h.

On to `Cc1c(Cc2ccccc2S(=O)(=O)c2ccc(Cl)cc2)c2c(n1CC(=O)O)CCNC2=O`, for which the half-inhibitory concentration (IC50) in data set [2] was determined as 8.5 nM. Also, the T1/2 in data set [1] worked out at 1.2 h.

Regarding `Cc1c(Cc2ccccc2S(=O)(=O)c2ccccc2)c2c(=O)n(C)ccc2n1CC(=O)O`, the inhibition in data set [5] and in data set [6] was less than 30% throughout. Besides, the Papp A→B in data set [4] is 0.1 ×10⁻⁶ cm/s. For the same compound, the T1/2 in data set [1] was 8 h.

Take `Cc1c(Cc2ccccc2S(=O)(=O)c2cccc(F)c2)c2c(n1CC(=O)O)CCNC2=O`: the inhibition in data set [5] and in data set [6] was less than 30% throughout. In data set [1], this compound had a T1/2 of 0.8 h.

The compound `Cc1c(Cc2ccc(S(=O)(=O)c3ccccc3)cc2)c2c(n1CC(=O)O)CCNC2=O` came in with a half-inhibitory concentration (IC50) in data set [2] of 170 nM.

For `COc1cccc(S(=O)(=O)c2ccccc2)c1Cc1c2c(n(CC(=O)O)c1C)CCNC2=O`, the concentration for half-maximal inhibition (IC50) in data set [2] stood at 4500 nM.

`COc1ccc(S(=O)(=O)c2ccccc2)c(Cc2c3c(n(CC(=O)O)c2C)CCNC3=O)c1`: the inhibition in data set [5] and in data set [6] was less than 30% in each case. Also, the T1/2 in data set [1] was 4.2 h.

Turning to `Cc1c(Cc2ccccc2S(=O)(=O)c2ccccc2)c2c(Cl)nccc2n1CC(=O)O`, the IC50 in data set [2] was found to be 16 nM. Further, the T1/2 in data set [1] was found to be 2 h.

The compound `COc1cccc(Cc2c3c(n(CC(=O)O)c2C)CCNC3=O)c1S(=O)(=O)c1ccccc1` came in with a T1/2 in data set [1] of 0.4 h.

The compound `CNC(=O)c1cccc(S(=O)(=O)c2ccccc2Cc2c3c(n(CC(=O)O)c2C)CCNC3=O)c1` displayed an IC50 in data set [2] of 240 nM.

For the compound `Cc1c(Cc2ccccc2S(=O)(=O)c2ccc(F)cc2)c2c(n1CC(=O)O)CC(C)(C)NC2=O`, the T1/2 in data set [1] is 18 h.

As to `Cc1c(Cc2ccccc2S(=O)(=O)c2ccccc2)c2c(n1CC(=O)O)CCN(C(C)C)C2=O`, the IC50 in data set [2] is 9 nM. Further, the pKa in data set [3] stood at 2.9. The T1/2 in data set [1] was determined as 2.6 h.

`CCN(Cc1ccccc1Cc1c2c(n(CC(=O)O)c1C)CCNC2=O)C(=O)C1CC1` showed a half-maximal inhibitory concentration (IC50) in data set [2] of 240 nM.

As for `Cc1c(Cc2cc(Br)ccc2S(=O)(=O)c2ccccc2)c2c(n1CC(=O)O)CCNC2=O`, in data set [1], the T1/2 was determined as 5.7 h.

In data set [1], `COc1ccc(S(=O)(=O)c2ccccc2Cc2c3c(n(CC(=O)O)c2C)CCNC3=O)cc1` registered a T1/2 of 3.2 h.

For `Cc1c(Cc2ccccc2Cc2ccccc2)c2c(n1CC(=O)O)CCNC2=O`, the IC50 in data set [2] was 120 nM. The apical-to-basolateral permeability (Papp A→B) in data set [4] is 0.2 ×10⁻⁶ cm/s.

As for `Cc1c(Cc2ccccc2S(=O)(=O)c2ccccc2)c2c(=O)n(C(F)F)ccc2n1CC(=O)O`, the 50% inhibitory concentration (IC50) in data set [2] stood at 2.2 nM. The inhibition in data set [5] and in data set [6] was less than 30% in each case. In data set [4], the Papp A→B came to 0.4 ×10⁻⁶ cm/s. Also, the T1/2 in data set [1] worked out at 21 h.

In data set [2], `Cc1c(Cc2ccccc2S(=O)(=O)c2ccccc2)c2c(n1CC(=O)O)CCN(C(C)C(F)(F)F)C2=O` (stereo unspecified) gave an IC50 of 6 nM. In data set [4], the Papp A→B is 0.6 ×10⁻⁶ cm/s. In data set [1], this compound registered a T1/2 of 2.1 h.

In the case of `Cc1c(Cc2ccccc2S(=O)(=O)c2ccccc2)c2c(n1[C@H](C)C(=O)O)CCNC2=O`, in data set [2], the IC50 amounted to 430 nM. This counts as sub-micromolar.

For `COc1ccc(S(=O)(=O)c2ccc(F)cc2)c(Cc2c3c(n(CC(=O)O)c2C)CC(C)(C)NC3=O)c1`, in data set [2], the IC50 is 5 nM. In data set [1], the T1/2 was 20 h.

Take `Cc1c(Cc2ccccc2-c2cccc3ccccc23)c2c(n1CC(=O)O)CCNC2=O`: in data set [2], the concentration for half-maximal inhibition (IC50) was 480 nM. In other words, the sub-micromolar range.

With `Cc1c(Cc2ccccc2S(=O)(=O)c2cccc(Cl)c2)c2c(n1CC(=O)O)CCNC2=O`, the inhibition in data set [5] and in data set [6] was less than 30% throughout. The compound further had a pKa in data set [3] of 3.1. In data set [1], the T1/2 came to 1.2 h.

As to `Cc1c(Cc2ccccc2Cn2ccnn2)c2c(n1CC(=O)O)CCNC2=O`, the 50% inhibitory concentration (IC50) in data set [2] worked out at 800 nM.

As for `Cc1c(Cc2ccccc2S(=O)(=O)C2CCCCC2)c2c(n1CC(=O)O)CCNC2=O`, the IC50 in data set [2] was determined as 28 nM.

By IC50 is commonly meant the midpoint of a concentration-inhibition curve. High values mean weaker potency in that assay, low ones greater potency in that assay. Usually pKa stands for the pH at which an ionisable group is half protonated. High values mean a group that holds its proton tightly, low ones a group that gives up its proton readily. As a reminder, the Papp A→B is how fast a substance crosses the layer from the apical side. One may read the inhibition as the change of the read-out against control, counted positive when it falls. Low values mean a response near the control, high ones a response far below the control.
